For one data set, the target named is HRV3C (Human rhinovirus 14, UniProt P03303). Briefly: HRV3C protease assay (duplex, SAMDI-MS). Format: biochemical, HRV. The procedure, abridged: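 HRV3C was preincubated 30 min with compound alongside 3CLpro at ambient temperature, then two biotinylated peptide substrates were added for 30 min. Quenching used 0.5% formic acid (final). Cleaved product was captured on neutravidin SAMDI arrays and quantified by MALDI-TOF as product/internal-standard AUC ratio; IC50 from four-parameter fit.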

Data set [1] can be described thus: in vitro. The note with it: African green monkey, VeroE6 + CP (CC50), Vero E6-eGFP cells with CP-100356, absence of virus, MTS; numeric bounds.
The next data set concerns the target T1, human cathepsin L (Homo sapiens, UniProt P07711).
T1 construct: purchased R&D Systems
Briefly: cathepsin L assay. In kind it is biochemical. Particulars: 10 pM human cathepsin L, Z-FR-AMC 2 μM. The method, boiled down: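 Reactions began by adding 2 μM (final) Z-FR-AMC substrate to 10 pM human cathepsin L that had been preincubated 30 min with inhibitor. Kinetic AMC fluorescence at 355/460 nm over 30 min at 2-min intervals; four-parameter fitting gave IC50 values.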

A short description of data set [2]: Cytotoxicity plates without OC43 virus (cell-titer-glo). In kind it is cell-based, human. Particulars: human; HeLa cells without OC43 virus, class symbols. The method, boiled down: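 Run as a virus-free counterpart of the OC43 cytopathic-effect assay. Attached HeLa cells received compound dilutions in EMEM with 2% FBS and were kept 6 days at 33 °C. Cell viability was then measured by CellTiter-Glo luminescence.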

Data set [3] concerns human beta-coronavirus OC43. The experiment in a line: microbe, parasite or virus in culture. Format: cell-based. The note with it: Betacoronavirus 1, OC43, HeLa, 144 h, OC43 in HeLa cells, 6 days at 33° C., read-out: EC50.
For data set [4], the system named is SARS-CoV-2-GHB-03021/2020. The experiment in a line: SARS-CoV-2 Infection Model in Huh7 Cells. Format: cell-based. The note with it: Severe acute respiratory syndrome coronavirus 2, Huh-7, 96 h, SARS-CoV-2, day 4 p.i., MTS.
Data set [5] is described as follows: in vitro. The note with it: human.
Data set [6] deals with SARS-CoV-2-GHB-03021/2020. The experiment in a line: microbe, parasite or virus in culture. In kind it is cell-based. Particulars: Severe acute respiratory syndrome coronavirus 2, Vero C1008, 96 h; read-out: VeroE6 + CP (EC50).
For the next data set, the target named is 3CLpro (Severe acute respiratory syndrome coronavirus 2, UniProt P0DTD1). The experiment in a line: SARS-CoV-2 3CLpro protease assay (duplex, SAMDI-MS). Also on record: For the duplex assay, 3CLpro and HRV3C was added. In kind it is biochemical. Particulars: 3CLpro, 30 mins preincubation, class symbols; read-out: SARS-Cov-2 IC50.
The mark [7] stands for this setting: HRV3C, 30 mins preincubation, bound, read-out: HRV IC50.
[8] abbreviates: HRV3C, 30 mins preincubation, class symbols, read-out: HRV IC50.

SMILES strings stand for the structures. Like-named read-outs stand apart in the source and are kept apart here.

For orientation: IC50 means the concentration needed to halve the response being measured. As a reminder, the EC50 is the concentration that produces a half-maximal response. For the molecule `O=C1NCC[C@H]1C[C@H](NC(=O)[C@@H]1[C@H]2CCC[C@H]2CN1C(=O)c1cc2c(Cl)ccc(Cl)c2[nH]1)C(=O)CO` [Compound 156, (1S,3aR,6aS)-2-(4,7-dichloro-1H-indole-2-carbonyl)-N-[(2S)-4-hydroxy-3-oxo-1-[(3S)-2-oxopyrrolidin-3-yl]butan-2-yl]-hexahydro-1H-cyclopenta[c]pyrrole-1-carboxamide], the 50% inhibitory concentration (IC50) at HRV3C (setting [7]) is over 10 µM; on human cathepsin L (class symbols) it was at least 10 µM; on 3CLpro, under 0.02 µM. The CC50 in “in vitro [1]” and in “in vitro [5]” was over 50 µM in each case. This molecule also yielded a CC50 at 6 days in data set [2] of over 10 µM. The values for the EC50 in data set [3] (class symbols), in data set [4] (class symbols) and in data set [6] were 0.1 to 1 µM, under 1 µM and under 1 µM, respectively.
Consider `O=C(NC1CC1)C(=O)[C@H](C[C@@H]1CCNC1=O)NC(=O)[C@@H]1CC2(CCN1C(=O)c1cc3c(C(F)(F)F)cccc3[nH]1)CC2` [Compound 170], for which the IC50 on HRV3C (setting [8]) was 0.2 to 2 µM; at human cathepsin L (class symbols) it was 0.1 to 1 µM; at 3CLpro, 0.02 to 0.2 µM. For the same molecule, the CC50 is over 50 µM in “in vitro [1]” and over 10 µM in “in vitro [5]”. This molecule yielded a CC50 at 6 days in data set [2] of over 10 µM. Moreover, the EC50 in data set [3] (class symbols) was 1 to 10 µM; in data set [4] (class symbols), 1 to 10 µM; in [6] it was 10 to 100 µM.
With `COc1nccc2[nH]c(C(=O)N3C[C@@H]4CCC[C@@H]4[C@H]3C(=O)N[C@@H](C[C@@H]3CCNC3=O)C(=O)CO)cc12` [Compound 93, (1S,3aR,6aS)—N-[(2S)-4-hydroxy-3-oxo-1-[(3S)-2-oxopyrrolidin-3-yl]butan-2-yl]-2-{4-methoxy-1H-pyrrolo[3,2-c]pyridine-2-carbonyl}-hexahydro-1H-cyclopenta[c]pyrrole-1-carboxamide], the IC50 at HRV3C (HRV IC50, HRV3C, 30 mins preincubation, bound) is over 10 µM; against human cathepsin L (class symbols), at least 10 µM; on 3CLpro it was under 0.02 µM. For the same molecule, the CC50 is over 50 µM in the data set “in vitro [1]” and over 100 µM in “in vitro [5]”. Also, the CC50 at 6 days in [2] is over 10 µM. In addition, the EC50 in [3] (class symbols) is 1 to 10 µM; in [4] (class symbols), 10 to 100 µM; in data set [6], 10 to 100 µM.
As for `COc1cccc2[nH]c(C(=O)N3C[C@@H]4CCC[C@@H]4[C@H]3C(=O)N[C@@H](C[C@H]3CC(C)(C)NC3=O)C(=O)CO)cc12` [Compound 70_2], the IC50 was over 10 µM at HRV3C (HRV3C, printed bound without unit, read-out: HRV IC50); at least 10 µM against human cathepsin L (class symbols); 0.2 to 2 µM at 3CLpro. Moreover, the CC50 in the data set “in vitro [1]” and in “in vitro [5]” was over 50 µM in each case. In addition, the CC50 at 6 days in data set [2] is over 10 µM. Also, the EC50 in data set [3] (class symbols) is 1 to 10 µM; in data set [4] (class symbols), 10 to 100 µM; in data set [6], 10 to 100 µM.
Consider `COc1cccc2sc(C(=O)N3C[C@@H]4CCC[C@@H]4[C@H]3C(=O)N[C@@H](C[C@@H]3CCNC3=O)C(=O)CO)cc12` [Compound 72, (1S,3aR,6aS)—N-[(2S)-4-hydroxy-3-oxo-1-[(3S)-2-oxopyrrolidin-3-yl]butan-2-yl]-2-(4-methoxy-1-benzothiophene-2-carbonyl)-hexahydro-1H-cyclopenta[c]pyrrole-1-carboxamide], for which the IC50 was over 10 µM on HRV3C (setting [7]), over 3.3 µM against human cathepsin L (bound) and 0.2 to 2 µM at 3CLpro. For the same molecule, the CC50 in the data set “in vitro [1]” and in “in vitro [5]” was over 100 µM in each case. The CC50 at 6 days in data set [2] is over 10 µM. The half-maximal effective concentration (EC50) in data set [3] (class symbols) was in the range of 0.1 to 1 µM; in data set [4] (class symbols) it was 1 to 10 µM; in data set [6] it was 1 to 10 µM.
Take `CC(C)C(=O)OCC(=O)[C@H](C[C@@H]1CCNC1=O)NC(=O)[C@@H]1[C@H]2CCC[C@H]2CN1C(=O)c1cc2c(Cl)cc(Cl)cc2[nH]1` [Compound 125, (3S)-3-{[(1S,3aR,6aS)-2-(4,6-dichloro-1H-indole-2-carbonyl)-hexahydro-1H-cyclopenta[c]pyrrol-1-yl]formamido}-2-oxo-4-[(3S)-2-oxopyrrolidin-3-yl]butyl 2-methylpropanoate]: the IC50 was over 10 µM at HRV3C (setting [7]), at least 10 µM against human cathepsin L (class symbols) and 0.2 to 2 µM at 3CLpro. Moreover, the results for the CC50 in the data set “in vitro [1]” and in “in vitro [5]” were over 50 µM and over 10 µM, respectively. In data set [2], this molecule gave a CC50 at 6 days of over 10 µM. Also, the half-maximal effective concentration (EC50) in data set [3] (class symbols) is under 0.1 µM; in [4] (class symbols) it was under 1 µM; in data set [6] it was under 1 µM.
`O=C1NCC[C@H]1C[C@H](NC(=O)[C@@H]1[C@H]2CCC[C@H]2CN1C(=O)c1cc(S(=O)(=O)c2ccccc2)c[nH]1)C(=O)CO` [Compound 82, (1S,3aR,6aS)-2-[4-(benzenesulfonyl)-1H-pyrrole-2-carbonyl]-N-[(2S)-4-hydroxy-3-oxo-1-[(3S)-2-oxopyrrolidin-3-yl]butan-2-yl]-hexahydro-1H-cyclopenta[c]pyrrole-1-carboxamide]: the IC50 on HRV3C (setting [8]) is 2 to 20 µM; on human cathepsin L (class symbols), at least 10 µM; on 3CLpro, 0.02 to 0.2 µM. Also, the CC50 in “in vitro [1]” and in the data set “in vitro [5]” was over 50 µM each time. The molecule further returned a CC50 at 6 days in [2] of over 10 µM. The values for the EC50 in [3] (bound), in data set [4] (numeric bounds) and in data set [6] were over 10 µM, over 50 µM and 10 to 100 µM, respectively.
Consider `COc1cccc2[nH]c(C(=O)N3C[C@@H]4CCC[C@@H]4[C@H]3C(=O)N[C@@H](Cn3cc[nH]c3=O)C(=O)C(=O)NC3CC3)cc12` [Compound 119], for which the IC50 on HRV3C (setting [7]) was over 10 µM; at human cathepsin L (class symbols), at least 10 µM; on 3CLpro, 0.2 to 2 µM. In addition, the CC50 in the data set “in vitro [1]” and in the data set “in vitro [5]” was over 50 µM throughout. In [2], this molecule displayed a CC50 at 6 days of over 10 µM. Further, the values for the EC50 in data set [3] (bound), in data set [4] (numeric bounds) and in data set [6] were over 10 µM, over 50 µM and over 50 µM, respectively.
For the molecule `CC(F)(F)c1cccc2[nH]c(C(=O)N3C[C@@H]4CCC[C@@H]4[C@H]3C(=O)N[C@@H](C[C@@H]3CCNC3=O)C(=O)CO)cc12` [Compound 152, (1S,3aR,6aS)-2-[4-(1,1-difluoroethyl)-1H-indole-2-carbonyl]-N-[(2S)-4-hydroxy-3-oxo-1-[(3S)-2-oxopyrrolidin-3-yl]butan-2-yl]-hexahydro-1H-cyclopenta[c]pyrrole-1-carboxamide], the IC50 is over 10 µM at HRV3C (setting [7]), at least 10 µM against human cathepsin L (class symbols) and 0.02 to 0.2 µM on 3CLpro. Also, the CC50 in “in vitro [1]” and in “in vitro [5]” was over 50 µM throughout. In addition, the CC50 at 6 days in [2] is over 10 µM. Also, the EC50 lay within 1 to 10 µM in [3] (class symbols), 10 to 100 µM in data set [4] (class symbols) and 10 to 100 µM in data set [6].
As to `CC1(C)CCN(C(=O)c2cc3ccccc3[nH]2)[C@H](C(=O)NC(C[C@@H]2CCNC2=O)C(=O)C(=O)NCc2ccccc2)C1` (stereo partly drawn) [Compound 26, (2S)—N-(4-(benzylamino)-3,4-dioxo-1-((S)-2-oxopyrrolidin-3-yl)butan-2-yl)-1-(1H-indole-2-carbonyl)-4,4-dimethylpiperidine-2-carboxamide], the IC50 at HRV3C (setting [8]) is 2 to 20 µM; against human cathepsin L (class symbols) it was under 0.1 µM; on 3CLpro it was 0.02 to 0.2 µM. Also, the CC50 in the data set “in vitro [1]” and in the data set “in vitro [5]” was over 100 µM each time. For the same molecule, in data set [2], the CC50 at 6 days was over 10 µM. Besides, the EC50 is 0.1 to 1 µM in data set [3] (class symbols), 10 to 100 µM in data set [4] (class symbols) and 10 to 100 µM in data set [6].
